Data on two molecules can be found in patent publication US6610483B1, “Methods for identifying cellular responses attributable to signaling molecule inhibition and inhibitors thereof” (priority 1999, dated 2003).

For assay [1], the system named is wild-type yeast cells with CDC28. Put plainly: DNA chip array of gene transcripts in wild-type yeast cells exposed to the mutant inhibitor. The class given is cell-based. Particulars: 500 nM, change of 2 fold or more. The protocol:
Yeast cells expressing a functionally silent, mutant form of the wild-type protein kinase CDC28, termed CDC28 F88G, were prepared by the methods of standard yeast genetics as described in “Guide to Yeast Genetics and Molecular Biology” (Methods in Enzymology, Vol.194) by Christine Guthrie, Gerald R. Fink (Editor) Vol 194 (February 1991) Academic Press. A selective inhibitor of the mutant kinase, with little effect on the wild-type kinase, was prepared and identified using the methods described in Application Serial No. 60/115,340. Using DNA chip array technology, the levels of 6100 gene transcripts were quantitated in mRNA isolated from yeast cells expressing either wild type or F88G (mutant) CDC28 protein kinase either untreated or treated for treated for 30 minutes or 120 minutes with 500 nanomolar (nM) 4-amino-1-(tert-butyl)-3-(1′-naphthylmethyl)pyrazolo[3,4-d]pyrimidine dissolved in DMSO (500) or simply DMSO (DMSO). A change is defined as 2 fold increase or decrease in a gene transcript that is present or absent only in a particular sample. Methods for measuring transcripts were those described in Wodicka L, Dong H, Mittmann M, Ho M H, Lockhart D J, Genome-wide expression monitoring in Saccharomyces cerevisiae, Nat. Biotechnol. (1997) 15:1359-67. […] Effects of the inhibitor were evaluated at 30 and 120 minutes. […]

For a further assay, the system named is mutant CDC28 F88G cells. Briefly: DNA chip array of gene transcripts in mutant CDC28 F88G yeast cells exposed to the mutant inhibitor. It is filed as cell-based. To be noted: 500 nM. The protocol:
Yeast cells expressing a functionally silent, mutant form of the wild-type protein kinase CDC28, termed CDC28 F88G, were prepared by the methods of standard yeast genetics as described in “Guide to Yeast Genetics and Molecular Biology” (Methods in Enzymology, Vol.194) by Christine Guthrie, Gerald R. Fink (Editor) Vol 194 (February 1991) Academic Press. A selective inhibitor of the mutant kinase, with little effect on the wild-type kinase, was prepared and identified using the methods described in Application Serial No. 60/115,340. Using DNA chip array technology, the levels of 6100 gene transcripts were quantitated in mRNA isolated from yeast cells expressing either wild type or F88G (mutant) CDC28 protein kinase either untreated or treated for treated for 30 minutes or 120 minutes with 500 nanomolar (nM) 4-amino-1-(tert-butyl)-3-(1′-naphthylmethyl)pyrazolo[3,4-d]pyrimidine dissolved in DMSO (500) or simply DMSO (DMSO). A change is defined as 2 fold increase or decrease in a gene transcript that is present or absent only in a particular sample. Methods for measuring transcripts were those described in Wodicka L, Dong H, Mittmann M, Ho M H, Lockhart D J, Genome-wide expression monitoring in Saccharomyces cerevisiae, Nat. Biotechnol. (1997) 15:1359-67. The results and comparisons among the gene transcripts are shown in FIGS. 1-4, with the identities of the particular gene transcripts listed in FIG. 5. Non-specific drug effects are the result of the exposure of the inhibitor to wild-type cells. The mutation effects are indicated by the alterations between the expression pattern between the mutant cells and the wild-type cells, both in the absence of inhibitor. The results of specific inhibition are shown by the differences between the mutant cells before and after exposure to the inhibitor, including increases and decreases. Effects of the inhibitor were evaluated at 30 and 120 minutes. These two time points were chosen based on the known time interval for yeast cell cycle progression which is about 90 minutes. Thus one time point shorter than the full cell cycle progression time (30 minutes) and one time point longer than […] (120 minutes) were chosen. The comparisons of results are shown in FIGS. 1-4, and the details of the particular transcripts altered in FIG. 5.

A further assay concerns PDGFR. Particulars: cited from earlier work.

pIC50: −log10 of the molar value.

Regarding `CC(C)(C)n1nc(Cc2cccc3ccccc23)c2c(N)ncnc21` [4-amino-1-(tert-butyl)-3-(1′-naphthylmethyl)pyrazolo[3,4-d]pyrimidine], in assay [1] (30 minute exposure), the “genes altered (non-specific drug effects)” value was 7 genes. Also, the “genes altered (non-specific drug effects)” value in assay [1] (120 minute exposure) is 3 genes. Further, in the assay on mutant CDC28 F88G cells (30 minute exposure), the genes altered was 85 genes, the “genes decreased more than two-fold” value is listed as 74 genes and the “genes increased more than two-fold” value turned out to be 11 genes. In the assay on mutant CDC28 F88G cells (120 minute exposure), this molecule returned a genes altered of 186 genes, a genes decreased of 100 genes and a genes increased of 86 genes.

`Cc1ccc(NC(=O)c2ccc(CN3CCN(C)CC3)cc2)cc1Nc1nccc(-c2cccnc2)n1` [CGP 57148]: in the assay with PDGFR, the pIC50 was […].

For orientation: pIC50 means the IC50 on a negative log10 scale, so that one unit is a factor of ten.
